We go through two compounds from US9545416B2 (Universite de Montreal, priority 2011, dated 2017).

The subject of data set [1] is F10R cells. Description: Cell number / growth assay, F10R resistant cells. In kind it is cell-based. The procedure: (§1) (FIG. 6). Gli-1 knockdown experiments were performed in parallel.
For data set [2], the target named is T1, eIF4E (Homo sapiens, UniProt P06730).
T1 construct: endogenous in cells; host or cells: parental FaDu, F10R and F100R resistant cells
Description: Immunoprecipitation of labelled (3H/14C) ribavirin with eIF4E in living cells. The class given is binding. Here is the method:
In total, it appears that these AML specimens have developed an “oncogene addiction” to eIF4E making them more sensitive to inhibition of eIF4E than specimens with normal eIF4E levels.
It was determined whether ^14C-ribavirin could immunoprecipitate with eIF4E in the F10R and F100R resistant cell lines.
Cells were treated for 24 hours with ^14C-ribavirin followed by cross-linking and immunoprecipitation and evaluated relative to IgG controls.

Data set [3] concerns F100R cells. Description: Cell growth assay, type 1 resistant F100R cells. The class given is cell-based. As to conditions: GDC-0449, type 1 resistant F100R cells.
For data set [4] the following is noted: reported according to Roche; cited from earlier work.
The subject of data set [5] is Parental FaDu cells. In words: Cell number / growth assay, parental FaDu cells. The class given is cell-based. Here is the method: as §1
Data set [6] deals with cyclin D1 and VEGF. In words: Protein levels of eIF4E export and translation targets as a function of ribavirin treatment. In kind it is cell-based.
For data set [7], the system named is FaDu and THP1 cells and resistant F10R, F100R, T10R, T20R cell lines. Description: Uptake of 3H-ribavirin in parental and resistant cell lines. The class given is cell-based. As to conditions: 0 to 16 hours.
Data set [8] has as its system MDR1. In words: MDR1 levels in patients. In kind it is in vivo, human. The following applies: Patient 10 (BR), four cycles.
The subject of data set [9] is FaDu and THP1 cells and resistant F10R, F100R, T10R, T20R cell lines. The following applies: previous studies; cited from earlier work.
The subject of data set [10] is relapsed/refractory M4/M5 AML.
Description: The molecular features identified in present studies were examined to determine whether they were relevant to specimens from patients that received ribavirin monotherapy in the multi-centre phase II AML trial. For responding patients, all available specimens before treatment were monitored, during clinical response, upon the onset of relapse and in non-responders when possible. A total of ten specimens were examined including those from patients that enrolled in the monotherapy trial. […] Of these, samples from 10 patients were available for evaluation of molecular response. […] Gli-1 mRNA levels were monitored using qRT-PCR.
Data set [11] has as its system ENT1. Description: ENT1 RNA levels in patients (RT-qPCR). In kind it is in vivo, human. As to conditions: Patient 10 (BR), four cycles. On the technique in general: In qPCR the cycle at which signal appears reflects the starting amount.
Description: Results from RT-qPCR are normalised against multiple genes to ensure no changes in the normalised occurred as described.
Data set [12] has as its system Gli-1 mRNA. Description: Gli-1 mRNA levels in patient specimens (qRT-PCR). In kind it is in vivo, human. As to conditions: two patients that did not respond (PD). The source says: For responding patients, in all cases Gli-1 mRNA levels were higher at resistance than during response.
The molecular features identified in present studies were examined to determine whether they were relevant to specimens from patients that received ribavirin monotherapy in the multi-centre phase II AML trial. For responding patients, all available specimens before treatment were monitored, during clinical response, upon the onset of relapse and in non-responders when possible. A total of ten specimens were examined including those from patients that enrolled in the monotherapy trial. Results from the trial, when closed, were 1 CR, 2 PR, 3 BR, 6 SD, 3 PD with 15 evaluable patients (Clinicaltrials.gov). Of these, samples from 10 patients were available for evaluation of molecular response. […] Gli-1 mRNA levels were monitored using qRT-PCR. […] (See above table).

Data set [13] deals with ENT1, ADK or Gli-1 levels. In words: Deep sequencing of 10R cells during ribavirin treatment. The class given is cell-based.
Description: All deep sequencing in resistant cells is done in the absence of ribavirin.
For data set [14], the system named is Gli-1 overexpressing cells. In words: Cell number assay, Gli-1 overexpressing FaDu cells. The class given is cell-based. The following applies: 20 μM ribavirin. Here is the method:
as §1

Data set [15] has as its target T2, eIF4E gene product (Homo sapiens, UniProt P06730).
T2 construct: from tissue; host or cells: leukemia specimens of AML patients in the clinical trials
Description: Molecular analysis of eIF4E gene product activity in trial patients. In kind it is in vivo. The following applies: after 28 days of oral ribavirin, monotherapy trial. The source says:
In terms of clinical response, 1 CR (complete remission), 2 PR (partial remission), 3 BR (blast response), 6 SD (stable disease), 3PD (progressive disease) were observed out of 15 evaluable patients. […] A biphasic molecular response was observed, where initially the eIF4E gene product was dramatically re-distributed to the cytoplasm in patients that responded. This was followed by a drop in eIF4E RNA and protein levels (up to one 28 day cycle).

Entries after “also recorded” stand apart in the source; their conditions may differ. Like-named read-outs stand apart in the source and are kept apart here.

T2 sequence (P06730 whole entry): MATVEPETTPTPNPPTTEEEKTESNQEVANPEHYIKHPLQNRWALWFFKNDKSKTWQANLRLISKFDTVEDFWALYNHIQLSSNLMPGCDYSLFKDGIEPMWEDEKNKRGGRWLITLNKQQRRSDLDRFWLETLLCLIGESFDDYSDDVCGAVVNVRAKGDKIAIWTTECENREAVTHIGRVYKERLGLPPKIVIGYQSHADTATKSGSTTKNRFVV

`CS(=O)(=O)c1ccc(C(=O)Nc2ccc(Cl)c(-c3ccccn3)c2)c(Cl)c1` [GDC-0449]: the growth result in data set [1] (3 nM GDC-0449 alone, F10R cells) is listed as “did not affect”; in [3], “no effect”. In addition, the “ribavirin binding to eIF4E after GDC-0449 treatment” value in [2] (F10R cells) was “increase in ribavirin binding to eIF4E”. The plasma levels in data set [4] is listed as 3 nM. The reduction in growth in data set [5] (3 nM GDC-0449 alone) came out at 25%.
As for `NC(=O)c1ncn([C@@H]2O[C@H](CO)[C@@H](O)[C@H]2O)n1` [ribavirin, 1-[(2R,3R,4S,5R)-3,4-dihydroxy-5-(hydroxymethyl)oxolan-2-yl]-1H-1,2,4-triazole-3-carboxamide], the “protein levels of cyclin D1 and VEGF” value in data set [6] (parental cell lines) is “reduces levels of these proteins”; in data set [6] (resistant cell lines) it was “no longer affects these”. The “cell numbers as % of the same cells without ribavirin” value in [1] (20 μM ribavirin, RNAi knockdown of Gli-1 in F10R cells) is “about 50%”. Moreover, the growth result in [1] (20 μM ribavirin, siRNA luciferase treated F10R cells) is “unaffected”. The 3H-ribavirin uptake result in data set [7] (F10R cells) is given as “indistinguishable from parental FaDu cells”; in [7] (F100R, T10R and T20R cell lines) it was “severe defects in ribavirin uptake”. Moreover, the “increase in MDR1 at relapse” value in [8] is listed as 17 fold. The “change of plasma ribavirin levels” value (CR patient of combination trial after Ara-C lowered to 10 mg/day) is “near doubling”. In addition, the ribavirin plasma levels runs as follows: (combination trial with subcutaneous low dose Ara-C) 4 to 10 µM; (monotherapy trial, 2000 mg/day) 20 to 30 µM; (monotherapy trial, 2800 mg/day) 20 µM. The “immunoprecipitation of 14C ribavirin with eIF4E” value is “does not immunoprecipitate with eIF4E; also recorded: did not immunoprecipitate” in data set [2] (F10R cell line) and “does not immunoprecipitate with eIF4E” in data set [2] (F100R cell line). Moreover, the “time of maximal uptake after ribavirin treatment” value in data set [9] is 8 to 10 h. Further, in [10] (out of 15 evaluable patients), the “number of patients with BR (blast response)” value worked out at 3. Moreover, the “number of patients with CR (complete remission)” value in [10] (out of 15 evaluable patients) turned out to be 1. Also, the “number of patients with PD (progressive disease)” value in data set [10] (out of 15 evaluable patients) is 3. In addition, in data set [10] (out of 15 evaluable patients), the “number of patients with PR (partial remission)” value is listed as 2. Moreover, the “number of patients with SD (stable disease)” value in data set [10] (out of 15 evaluable patients) was 6. In data set [10] (patient 18 (SD), during response), this compound registered a drop in blasts of 20%. Further, the “decrease in cell number” value in data set [5] (10 μM ribavirin for 96 hours) was “about 50%”. For the same compound, the “reduction of cell number” value in data set [5] (20 μM ribavirin) was 50%. The “reduction in ENT1 levels at relapse” value in data set [11] is given as 3 fold. Further, the “Gli-1 levels after 28 days of ribavirin” value in data set [12] is recorded as “not lowered”. Besides, in data set [13], the “ENT1, ADK or Gli-1 levels on addition of ribavirin” value was “did not alter”. For the same compound, in [14], the “cell number as % of the untreated Gli-1 overexpressing cells” value was determined as 95%. Further, the “mRNA export activity of the eIF4E gene product” value in data set [15] is recorded as “substantially reduced”.
